In paper PMC10691770, “Inhibition of Parkinson’s disease–related LRRK2 by type I and type II kinase inhibitors: Activity and structures” (Science Advances, 2023):

Key:
[1] = system: LRRK2(WT) and LRRK2(G2019S); parameters: method as in PMID 34515301; settings: cited from earlier work
[2] = LRRK2-IN-1 ref 18; HG-10-102-01 ref 19; cited from earlier work
LRRK2^RCKW = target: T1, LRRK2^RCKW (Homo sapiens, UniProt Q5S007); test: MS-based kinase activity assay (Rab8A phosphorylation); format: biochemical; settings: 50 nM LRRK2^RCKW, 5 μM Rab8A, 1 mM ATP, ESI-MS readout
T1 construct: His6-Z (TEV site) (N, cleaved yes); made in house; host or cells: Sf9 insect cells (baculovirus)
T1 sequence (Q5S007 1327-2527): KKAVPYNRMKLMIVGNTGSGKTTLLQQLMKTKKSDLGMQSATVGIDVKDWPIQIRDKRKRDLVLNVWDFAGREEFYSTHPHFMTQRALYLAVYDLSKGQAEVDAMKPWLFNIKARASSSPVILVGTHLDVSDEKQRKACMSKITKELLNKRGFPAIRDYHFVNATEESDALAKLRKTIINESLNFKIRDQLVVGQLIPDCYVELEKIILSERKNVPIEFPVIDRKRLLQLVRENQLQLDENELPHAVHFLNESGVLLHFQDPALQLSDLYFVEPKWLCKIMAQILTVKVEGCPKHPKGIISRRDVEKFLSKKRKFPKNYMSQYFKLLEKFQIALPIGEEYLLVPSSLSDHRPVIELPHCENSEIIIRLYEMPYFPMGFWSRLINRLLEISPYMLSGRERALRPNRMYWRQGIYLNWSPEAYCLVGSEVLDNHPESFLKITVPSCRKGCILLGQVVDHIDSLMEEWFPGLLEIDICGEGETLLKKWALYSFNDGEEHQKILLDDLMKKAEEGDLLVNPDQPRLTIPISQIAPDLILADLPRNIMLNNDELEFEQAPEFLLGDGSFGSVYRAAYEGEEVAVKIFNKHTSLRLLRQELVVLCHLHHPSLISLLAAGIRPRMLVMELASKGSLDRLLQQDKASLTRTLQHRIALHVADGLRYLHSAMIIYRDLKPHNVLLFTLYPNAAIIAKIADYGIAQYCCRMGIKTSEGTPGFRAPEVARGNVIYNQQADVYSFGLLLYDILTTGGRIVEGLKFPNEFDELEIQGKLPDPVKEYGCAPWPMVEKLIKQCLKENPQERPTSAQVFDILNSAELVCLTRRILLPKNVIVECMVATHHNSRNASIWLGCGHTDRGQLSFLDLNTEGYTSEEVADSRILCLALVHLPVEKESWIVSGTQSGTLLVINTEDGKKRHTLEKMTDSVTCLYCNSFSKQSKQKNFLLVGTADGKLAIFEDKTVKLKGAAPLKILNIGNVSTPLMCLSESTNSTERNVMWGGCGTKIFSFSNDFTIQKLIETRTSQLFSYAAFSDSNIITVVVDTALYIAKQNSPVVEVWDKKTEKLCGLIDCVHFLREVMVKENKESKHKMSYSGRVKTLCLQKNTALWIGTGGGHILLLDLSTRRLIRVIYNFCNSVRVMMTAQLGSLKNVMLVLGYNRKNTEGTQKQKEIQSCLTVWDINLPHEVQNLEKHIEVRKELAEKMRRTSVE
Source text: To compare the activity of the selected LRRK2 inhibitors, we developed a mass spectrometry (MS)–based kinase activity assay using an established endogenous substrate. We subjected the Rab8A GTPase domain (residues 6 to 176) to LRRK2^RCKW phosphorylation in the presence of varying concentrations of a given inhibitor and directly quantified the amount of phosphorylated Rab8A (pRab8A) by ESI-MS (fig. S1C).
To determine the IC50 values for a set of LRRK2 inhibitors, the phosphorylation of the LRRK2 substrate Rab8A was assessed by applying an MS-based activity assay. LRRK2^RCKW protein (50 nM) was mixed with 5 μM substrate and varying concentrations of the inhibitors in assay buffer [20 mM Hepes (pH 7.4), 150 mM NaCl, 0.5 mM TCEP, 20 μM GDP, 2.5 mM MgCl2, and 0.5% glycerol]. The reaction was started by adding 1 mM ATP and incubated at room temperature (RT). […] Data were acquired using the MassHunter LC/MS Data Acquisition software and analyzed using the BioConfirm vB.08.00 tool (both Agilent Technology) (https://www.agilent.com/en/product/software-informatics/mass-spectrometry-software, RRID: SCR_016657). The peak intensities of the unphosphorylated and phosphorylated Rab8A species were quantified and the relative kinase activity was calculated. […]

LRRK2^KW (G2019S) = test: Differential scanning fluorimetry (DSF) thermal shift assay, G2019S mutant; format: binding; settings: inhibitor 10 μM
Procedure: The assay was performed according to a previously established protocol ([37]). Briefly, a solution of 4 μM LRRK2^KW protein in assay buffer [20 mM Hepes (pH 7.4), 150 mM NaCl, 0.5 mM Tris (2-carboxyethyl) phosphine (TCEP), 20 μM GDP, 2.5 mM MgCl2, and 0.5% glycerol] was mixed 1:1000 with SYPRO Orange (Sigma-Aldrich). The inhibitors to be tested were added to a final concentration of 10 μM. Twenty microliters of each sample were placed in a 96-well plate and heated gradually from 25° to 95°C. Fluorescence was monitored using an MX3005P real-time PCR instrument (Stratagene) with excitation and emission filters set to 465 and 590 nm, respectively. Data were analyzed with the MxPro software.

For Cc1ccc(C(=O)Nc2ccc(CN3CCN(C)CC3)c(C(F)(F)F)c2)cc1C#Cc1cnc2[nH]ncc2c1 [GZD-824], the “IC50 for LRRK2(WT) lower than that for LRRK2(G2019S)” value ([1]; in vitro phosphorylation assay) is listed as ~ 4 fold.

For CNc1nc(Nc2ccc(C(=O)N3CCOCC3)cc2OC)ncc1Cl [HG-10-102-01], the brain penetrance [2] is listed as “brain penetrant”.

For COc1cc(C(=O)N2CCC(N3CCN(C)CC3)CC2)ccc1Nc1ncc2c(n1)N(C)c1ccccc1C(=O)N2C [LRRK2-IN-1], the “IC50 (inhibition of Rab8A phosphorylation), in words” value (LRRK2^RCKW) is listed as “high nanomolar range” and the brain penetrance [2] is listed as “low brain penetrance”.

For CC1CN(c2cc(-c3n[nH]c4ccc(OC5(C)CC5)cc34)ncn2)CC(C)O1 (stereo not drawn) [MLi-2], the “inhibition of LRRK2(G2019S) better than LRRK2(WT)” value ([1]; purified full-length LRRK2, in vitro assay with a peptide kinase substrate) is given as ~ 2 fold and the ΔTM (LRRK2^KW (G2019S)) is given as 18 K.
